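These data come from cells grown in 96-well plates and exposed to compound for 48 hours at five concentrations. Here, GI50 denotes the concentration required for 50% inhibition of growth.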 Active and inactive are the calls of the source. Cut-off read from the data, not from the text of the source: active = GI50 up to about 1.1 µM and inactive = higher.

From ChEMBL document CHEMBL1201862, “PubChem BioAssay data set” (2004) come the findings set out here.

Test systems include MDA-MB-435; HCT-15; SW-620; UACC-257; IGROV-1; HT-29; HOP-62; 786-0; NCI-H522; A549; HCT-116; KM12; A498; RPMI-8226; SK-MEL-28; SK-MEL-2; U-251; LOX IMVI; MOLT-4.
Experiment in all cases: growth of human tumour cells (NCI), 48 h

In the case of `O=C1CCCC2=C1C(c1ccc3c(c1)OCO3)Nc1ccc3ccccc3c12` (configuration not stated), the GI50 in the test with MDA-MB-435 is > 100 µM (inactive); in the test on HCT-15, more than 100 µM; in the test with SW-620, > 100 µM (inactive); with UACC-257, > 100 µM (inactive); in the test with IGROV-1, > 100 µM (inactive); in the test with HT-29 it was > 100 µM (inactive). The GI50 in the test with HOP-62, with 786-0, in the test on NCI-H522, in the test with A549, with HCT-116 and in the test with KM12 was > 100 µM (inactive) each time. The GI50 in the test with A498, in the test on RPMI-8226, with SK-MEL-28, in the test with SK-MEL-2 and with U-251 was > 100 µM (inactive) each time.

Consider `COC(CC1(/C=C/O[Si](C(C)C)(C(C)C)C(C)C)C(=O)N(C)c2ccccc21)OC` (configuration not stated), for which the GI50 was 76.2 µM (inactive) with MDA-MB-435; 40.9 µM in the test with HCT-15; > 100 µM (inactive) in the test with SW-620; 47 µM (inactive) in the test on UACC-257; 58.1 µM (inactive) in the test on HOP-62; 18.4 µM (inactive) in the test on 786-0. Besides, the GI50 is 33.4 µM (inactive) in the test with LOX IMVI; 45.2 µM (inactive) in the test on A549; 28.5 µM (inactive) in the test on HCT-116; 39.4 µM (inactive) in the test on KM12; > 100 µM (inactive) in the test with A498; 15.3 µM (inactive) in the test on RPMI-8226. In addition, the GI50 in the test on SK-MEL-28 is > 100 µM (inactive); in the test on SK-MEL-2, > 100 µM (inactive); in the test with U-251, 51.9 µM (inactive); in the test on MOLT-4, 55.3 µM (inactive).

For the compound `COc1cc(C(C)(C)C)c(OC(=O)/C=C/C(=O)O/C=C/[N+](=O)[O-])c(C(C)(C)C)c1`, the GI50 in the test with MDA-MB-435 is 21.2 µM (inactive); in the test on HCT-15, 17.8 µM; in the test with SW-620, 28.4 µM (inactive); in the test on UACC-257, 47.6 µM (inactive); in the test on IGROV-1, 69.8 µM (inactive); with HT-29, 21.1 µM (inactive). In addition, the GI50 in the test with HOP-62 is > 100 µM (inactive); in the test with 786-0, 34.4 µM (inactive); in the test with LOX IMVI, 24.2 µM (inactive); in the test on NCI-H522, 29.9 µM (inactive); with A549 it was 21.4 µM (inactive); in the test on HCT-116, 46.5 µM (inactive). The GI50 with KM12 is 16.8 µM (inactive); in the test on A498 it was 44.4 µM (inactive); in the test on RPMI-8226, > 100 µM (inactive); in the test on U-251 it was 47.1 µM (inactive); with MOLT-4, > 100 µM (inactive).

For `Cc1ccc(/C=N/NS(=O)(=O)c2ccc(/C=C3\NC(=O)NC3=O)cc2)cc1`, the GI50 in the test with MDA-MB-435 was > 100 µM (inactive); in the test on HCT-15, more than 100 µM; with SW-620, > 100 µM (inactive); with UACC-257 it was > 100 µM (inactive); in the test on IGROV-1 it was 87.9 µM (inactive); in the test with HT-29, > 100 µM (inactive). The GI50 in the test on HOP-62 is 27.6 µM (inactive); in the test on 786-0, 61.1 µM (inactive); in the test on LOX IMVI, > 100 µM (inactive); in the test with A549 it was > 100 µM (inactive); in the test on HCT-116 it was > 100 µM (inactive); with KM12, > 100 µM (inactive). Besides, the GI50 in the test on A498 is > 100 µM (inactive); with RPMI-8226, > 100 µM (inactive); in the test on SK-MEL-28, > 100 µM (inactive); in the test with SK-MEL-2 it was > 100 µM (inactive); in the test on U-251, 40.8 µM (inactive); with MOLT-4, > 100 µM (inactive).

For the compound `Clc1ccc(-c2nc3ccc4ccccc4c3c3c2CCCC3)cc1`, the GI50 in the test with MDA-MB-435 was > 100 µM (inactive); in the test on HCT-15 it was 62.8 µM; in the test on SW-620, > 100 µM (inactive); with UACC-257, > 100 µM (inactive); with IGROV-1, > 100 µM (inactive); in the test with HT-29 it was 44.6 µM (inactive). Moreover, the GI50 with HOP-62 was > 100 µM (inactive); in the test on 786-0, 75.2 µM (inactive); in the test with NCI-H522 it was > 100 µM (inactive); with A549, 63.4 µM (inactive); in the test with HCT-116, 50.5 µM (inactive); with KM12, > 100 µM (inactive). The GI50 is > 100 µM (inactive) with A498; > 100 µM (inactive) in the test with RPMI-8226; > 100 µM (inactive) in the test with SK-MEL-28; > 100 µM (inactive) with SK-MEL-2; 94.4 µM (inactive) in the test on U-251; > 100 µM (inactive) in the test on MOLT-4.

In the case of `O=C(NC(CO)Cc1ccc(Oc2cc(CC(CO)NC(=O)OCc3ccccc3)ccc2OC(=O)OCc2ccccc2)cc1)OCc1ccccc1` (configuration not stated), the GI50 in the test with MDA-MB-435 is 16.6 µM (inactive); in the test with HCT-15, 24.9 µM; in the test with SW-620 it was 26.3 µM (inactive); in the test on UACC-257, 15 µM (inactive); in the test on IGROV-1, 20.3 µM (inactive); in the test on HT-29, 14.2 µM (inactive). Moreover, the GI50 in the test on HOP-62 is 20.2 µM (inactive); with 786-0, 25.1 µM (inactive); in the test on LOX IMVI, 12.1 µM (inactive); in the test with A549, 11.6 µM (inactive); in the test on HCT-116, 16.7 µM (inactive); with KM12, 17.1 µM (inactive). Besides, the GI50 with A498 is 14.7 µM (inactive); with RPMI-8226, 2.94 µM (inactive); in the test on SK-MEL-28 it was 17.9 µM (inactive); in the test with SK-MEL-2 it was 19.3 µM (inactive); with MOLT-4, 3.32 µM (inactive).

Turning to `CC(=O)N(C)c1ccc(/N=C/N(C)C)cc1`, the GI50 in the test on MDA-MB-435 was > 100 µM (inactive); with HCT-15, more than 100 µM; in the test on UACC-257, > 100 µM (inactive); in the test on IGROV-1 it was > 100 µM (inactive); in the test on HT-29 it was > 100 µM (inactive); in the test with HOP-62, > 100 µM (inactive). The GI50 in the test with 786-0, with LOX IMVI, in the test with NCI-H522, in the test on A549, in the test with HCT-116 and in the test on A498 was > 100 µM (inactive) throughout. For the same compound, the GI50 in the test with RPMI-8226, in the test on SK-MEL-28, in the test with SK-MEL-2, with U-251 and in the test with MOLT-4 was > 100 µM (inactive) in each case.

As to `Nc1nc(Nc2ccc(Cl)cc2)sc1C(=O)c1cc2ccccc2oc1=O`, the GI50 with MDA-MB-435 is 23.7 µM (inactive); with HCT-15, 34.5 µM; with SW-620 it was 54.1 µM (inactive); in the test with UACC-257, 69.5 µM (inactive); with IGROV-1, 56.6 µM (inactive); in the test on HT-29 it was 72.4 µM (inactive). Also, the GI50 was 12.9 µM (inactive) with HOP-62; 19.5 µM (inactive) in the test with 786-0; 23.8 µM (inactive) in the test on LOX IMVI; 98.9 µM (inactive) in the test with A549; 23.1 µM (inactive) with HCT-116; 35.2 µM (inactive) in the test with KM12. The GI50 was 19.2 µM (inactive) with A498; 29.4 µM (inactive) in the test on RPMI-8226; 46.5 µM (inactive) in the test on SK-MEL-28; 7.94 µM (inactive) in the test on SK-MEL-2; 18.8 µM (inactive) with U-251.
